Details: crystalline form as isolated

O=C([O-])CN(C(=O)OCc1ccccc1)C1CCN(C(=O)OCc2ccccc2)C1.[Na+] (stereo not shown) [II-Cbz-Na, sodium salt of (1-carbobenzyloxypyrrolidin-3-yl)-N-carbobenzyloxyglycine]
water solubility: highly water-soluble

Source: patent US20100087658A1, “METHODS AND INTERMEDIATES FOR SYNTHESIS OF SELECTIVE DPP-IV INHIBITORS” (Phenomix Corporation, priority 1996, published 2010)
